ChEMBL document CHEMBL1201862, “PubChem BioAssay data set” (2004)
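96-well plates; 48 h exposure; 5 concentrations. Endpoints by linear interpolation between flanking doses. Not reached: highest tested concentration assigned. Abbreviation: GI50, concentration required for 50% inhibition of growth.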 Activity calls are given as the source filed them. Cut-off read from the data, not from the text of the source: active = GI50 up to about 1.1 µM and inactive = higher.

Key:
Test in all cases: DTP human tumour cell line panel, 48 h
786-0 = system: 786-0
A498 = system: A498
A549 = system: A549
ACHN = system: ACHN
CAKI-1 = system: CAKI-1
CCRF-CEM = system: CCRF-CEM
COLO 205 = system: COLO 205
DLD-1 = system: DLD-1
DMS-114 = system: DMS-114
DMS-273 = system: DMS-273
EKVX = system: EKVX
HCC 2998 = system: HCC 2998
HCT-116 = system: HCT-116
HCT-15 = system: HCT-15
HL-60 = system: HL-60
HOP-62 = system: HOP-62
HT-29 = system: HT-29
IGROV-1 = system: IGROV-1
K562 = system: K562
KM-20L2 = system: KM-20L2
KM12 = system: KM12
LOX IMVI = system: LOX IMVI
LXFL 529 = system: LXFL 529
M14 = system: M14
M19-MEL = system: M19-MEL
MOLT-4 = system: MOLT-4
Malme-3M = system: Malme-3M
NCI-H226 = system: NCI-H226
NCI-H23 = system: NCI-H23
NCI-H460 = system: NCI-H460
NCI-H522 = system: NCI-H522
OVCAR-3 = system: OVCAR-3
OVCAR-4 = system: OVCAR-4
OVCAR-5 = system: OVCAR-5
OVCAR-8 = system: OVCAR-8
RPMI-8226 = system: RPMI-8226
RXF 393 = system: RXF 393
SF-268 = system: SF-268
SF-295 = system: SF-295
SF-539 = system: SF-539
SK-MEL-28 = system: SK-MEL-28
SK-MEL-2 = system: SK-MEL-2
SK-MEL-5 = system: SK-MEL-5
SK-OV-3 = system: SK-OV-3
SN12C = system: SN12C
SNB-19 = system: SNB-19
SNB-75 = system: SNB-75
SNB-78 = system: SNB-78
SR = system: SR
SW-620 = system: SW-620
TK-10 = system: TK-10
U-251 = system: U-251
UACC-257 = system: UACC-257
UACC-62 = system: UACC-62
UO-31 = system: UO-31
XF498 = system: XF498
HOP-92 = system: HOP-92

Structure (SMILES): N#CC(/C(=N/NC(=N)N)C(=O)Nc1ccccc1[N+](=O)[O-])c1nc(-c2ccc([N+](=O)[O-])cc2)cs1 (stereo unspecified)
- GI50 (786-0): > 100 µM (inactive)
- GI50 (A498): > 100 µM (inactive)
- GI50 (A549): > 100 µM (inactive)
- GI50 (ACHN): > 100 µM (inactive)
- GI50 (CAKI-1): > 100 µM (inactive)
- GI50 (CCRF-CEM): > 100 µM (inactive)
- GI50 (COLO 205): > 100 µM (inactive)
- GI50 (DLD-1): > 100 µM (inactive)
- GI50 (DMS-114): > 100 µM (inactive)
- GI50 (DMS-273): > 100 µM (inactive)
- GI50 (EKVX): > 100 µM (inactive)
- GI50 (HCC 2998): > 100 µM (inactive)
- GI50 (HCT-116): > 100 µM (inactive)
- GI50 (HCT-15): > 100 µM
- GI50 (HL-60): > 100 µM (inactive)
- GI50 (HOP-62): > 100 µM (inactive)
- GI50 (HT-29): > 100 µM (inactive)
- GI50 (IGROV-1): > 100 µM (inactive)
- GI50 (K562): > 100 µM (inactive)
- GI50 (KM-20L2): > 100 µM (inactive)
- GI50 (KM12): > 100 µM (inactive)
- GI50 (LOX IMVI): > 100 µM (inactive)
- GI50 (LXFL 529): > 100 µM (inactive)
- GI50 (M14): > 100 µM (inactive)
- GI50 (M19-MEL): > 100 µM (inactive)
- GI50 (MOLT-4): > 100 µM (inactive)
- GI50 (Malme-3M): > 100 µM (inactive)
- GI50 (NCI-H226): > 100 µM (inactive)
- GI50 (NCI-H23): > 100 µM (inactive)
- GI50 (NCI-H460): > 100 µM (inactive)
- GI50 (NCI-H522): > 100 µM (inactive)
- GI50 (OVCAR-3): > 100 µM (inactive)
- GI50 (OVCAR-4): > 100 µM (inactive)
- GI50 (OVCAR-5): > 100 µM (inactive)
- GI50 (OVCAR-8): > 100 µM (inactive)
- GI50 (RPMI-8226): > 100 µM (inactive)
- GI50 (RXF 393): > 100 µM (inactive)
- GI50 (SF-268): > 100 µM (inactive)
- GI50 (SF-295): > 100 µM (inactive)
- GI50 (SF-539): > 100 µM (inactive)
- GI50 (SK-MEL-28): > 100 µM (inactive)
- GI50 (SK-MEL-2): > 100 µM (inactive)
- GI50 (SK-MEL-5): > 100 µM (inactive)
- GI50 (SK-OV-3): > 100 µM (inactive)
- GI50 (SN12C): > 100 µM (inactive)
- GI50 (SNB-19): > 100 µM (inactive)
- GI50 (SNB-75): > 100 µM (inactive)
- GI50 (SNB-78): > 100 µM (inactive)
- GI50 (SR): > 100 µM (inactive)
- GI50 (SW-620): > 100 µM (inactive)
- GI50 (TK-10): > 100 µM (inactive)
- GI50 (U-251): > 100 µM (inactive)
- GI50 (UACC-257): > 100 µM (inactive)
- GI50 (UACC-62): > 100 µM (inactive)
- GI50 (UO-31): > 100 µM (inactive)
- GI50 (XF498): > 100 µM (inactive)

Structure (SMILES): CCC(=C(c1ccc(OCc2ccccc2)cc1)c1ccc(OCc2ccccc2)cc1)c1ccc(OC)cc1
- GI50 (786-0): > 100 µM (inactive)
- GI50 (A549): > 100 µM (inactive)
- GI50 (ACHN): > 100 µM (inactive)
- GI50 (CAKI-1): > 100 µM (inactive)
- GI50 (CCRF-CEM): > 100 µM (inactive)
- GI50 (COLO 205): > 100 µM (inactive)
- GI50 (DLD-1): > 100 µM (inactive)
- GI50 (DMS-114): > 100 µM (inactive)
- GI50 (DMS-273): > 100 µM (inactive)
- GI50 (EKVX): > 100 µM (inactive)
- GI50 (HCC 2998): > 100 µM (inactive)
- GI50 (HCT-116): > 100 µM (inactive)
- GI50 (HCT-15): > 100 µM
- GI50 (HL-60): > 100 µM (inactive)
- GI50 (HOP-62): > 100 µM (inactive)
- GI50 (HOP-92): > 100 µM (inactive)
- GI50 (HT-29): > 100 µM (inactive)
- GI50 (IGROV-1): > 100 µM (inactive)
- GI50 (K562): > 100 µM (inactive)
- GI50 (KM-20L2): > 100 µM (inactive)
- GI50 (KM12): > 100 µM (inactive)
- GI50 (LOX IMVI): > 100 µM (inactive)
- GI50 (LXFL 529): > 100 µM (inactive)
- GI50 (M14): > 100 µM (inactive)
- GI50 (M19-MEL): > 100 µM (inactive)
- GI50 (MOLT-4): > 100 µM (inactive)
- GI50 (Malme-3M): > 100 µM (inactive)
- GI50 (NCI-H226): > 100 µM (inactive)
- GI50 (NCI-H23): > 100 µM (inactive)
- GI50 (NCI-H460): > 100 µM (inactive)
- GI50 (NCI-H522): > 100 µM (inactive)
- GI50 (OVCAR-3): > 100 µM (inactive)
- GI50 (OVCAR-4): > 100 µM (inactive)
- GI50 (OVCAR-5): > 100 µM (inactive)
- GI50 (OVCAR-8): > 100 µM (inactive)
- GI50 (RPMI-8226): > 100 µM (inactive)
- GI50 (RXF 393): > 100 µM (inactive)
- GI50 (SF-268): > 100 µM (inactive)
- GI50 (SF-295): > 100 µM (inactive)
- GI50 (SF-539): > 100 µM (inactive)
- GI50 (SK-MEL-28): > 100 µM (inactive)
- GI50 (SK-MEL-2): > 100 µM (inactive)
- GI50 (SK-MEL-5): > 100 µM (inactive)
- GI50 (SK-OV-3): > 100 µM (inactive)
- GI50 (SN12C): > 100 µM (inactive)
- GI50 (SNB-19): > 100 µM (inactive)
- GI50 (SNB-75): > 100 µM (inactive)
- GI50 (SNB-78): > 100 µM (inactive)
- GI50 (SR): > 100 µM (inactive)
- GI50 (SW-620): > 100 µM (inactive)
- GI50 (TK-10): > 100 µM (inactive)
- GI50 (U-251): > 100 µM (inactive)
- GI50 (UACC-62): > 100 µM (inactive)
- GI50 (UO-31): > 100 µM (inactive)
- GI50 (XF498): > 100 µM (inactive)
